pIC50: −log10 of the molar value. Read-outs that look alike come from different tables or passages of the source. Peptide text beside a SMILES is read from it. * marks the point of attachment. X1 = CC1(C)S[C@@H]2[C@H](NC(=O)C*)C(=O)N2[C@H]1C(=O)O
What was measured:
[1] = target: T1, PBP2a (Staphylococcus aureus, UniProt P07944); test: biochemical; assay type: biochemical
T1 construct: The truncated PBP2a gene (Roychoudhury et al., J. Biol. Chem. 269:112067-12073, 1994) (cleaved yes); made in house; host or cells: E. coli BL21(DE3)

[2] = target: penicillin-binding protein 2a (PBP2a), truncated, recombinant from E. coli (Staphylococcus aureus (methicillin-resistant, MRSA)) (UniProt P07944); test: relative IC50: competition with biotinylated ampicillin for PBP2a, SDS-PAGE and streptavidin-HRP blot
[3] = target: penicillin-binding protein 2a (PBP2a), truncated, recombinant from E. coli (Staphylococcus aureus (methicillin-resistant, MRSA)) (UniProt P07944); test: relative IC50: competition with biotinylated ampicillin for PBP2a

## CO/N=C(\C(=O)N[C@@H]1C(=O)N2C(C(=O)O)=C(COC(C)=O)CS[C@H]12)c1csc(N)n1 [cefotaxime, reference compound]
[1]
  pIC50: 2.54

## LRNSNC(COOH)IRHFF (residues 2-12 of SEQ ID NO: 5), peptide derivatized with bromoacetic acid
[2]
  pIC50: < 1.46

## LRNSNC(pen)IRHFF (residues 2-12 of SEQ ID NO: 5), synthetic peptide penicillanate conjugate
[3]
  fold improvement compared to 6-aminopenicillanic acid: 100 fold

## CC[C@H](C)[C@H](NC(=O)[C@H](CSCC(=O)N[C@@H]1C(=O)N2[C@@H]1SC(C)(C)[C@@H]2C(=O)O)NC(=O)[C@H](CC(N)=O)NC(=O)[C@H](CO)NC(=O)[C@H](CC(N)=O)NC(=O)[C@H](CCCNC(=N)N)NC(=O)[C@@H](N)CC(C)C)C(=O)N[C@@H](CCCNC(=N)N)C(=O)N[C@@H](Cc1c[nH]cn1)C(=O)N[C@@H](Cc1ccccc1)C(=O)N[C@@H](Cc1ccccc1)C(=O)O [LRNSNC(pen)IRHFF] (H-LRNSNC(X1)IRHFF-OH)
[1]; 2 μg pure PBP2a, conjugate 15 min at 37° C., then 20 μg biotinylated ampicillin 10 min, read-out: relative IC50
  pIC50: ~2.15
[1]; as compared
  improvement of PBP2a inhibition over the parent penam: about 100 fold

— patent US20030235852A1, “Nucleic acid-peptide display libraries containing peptides with unnatural amino acid residues, and methods of making same using peptide modifying agents” (priority 2002, published 2003)
